Usually melting point stands for the temperature of the solid-liquid transition.

Molecule `CCCc1nc2c(N)nc3cc(OCCCCCCNC(C)=O)ccc3c2n1CCCCNS(C)(=O)=O` [Example 48, N-(6-{4-Amino-1-[4-(methanesulfonylamino)butyl]-2-propyl-1H-imidazo[4,5-c]quinolin-7-yloxy}hexyl)acetamide] had a melting point of 168 to 172 °C.
In turn, `CCOCc1nc2c(N)nc3cc(OCCCCCCNC(C)=O)ccc3c2n1CC(C)(C)NC(C)=O` [Example 50, N-(2-{7-[6-(Acetylamino)hexyloxy]-4-amino-2-ethoxymethyl-1H-imidazo[4,5-c]quinolin-1-yl}-1,1-dimethylethyl)acetamide] yielded a melting point of 190 to 192 °C.
With `CCc1nc2c(N)nc3cc(OCC(=O)C(C)(C)C)ccc3c2n1CCOc1ccccc1` [Example 52, 1-[4-Amino-2-ethyl-1-(2-phenoxyethyl)-1H-imidazo[4,5-c]quinolin-7-yloxy]-3,3-dimethylbutan-2-one], the melting point was 238 to 239 °C (dec.).
On to `CCc1nc2c(N)nc3cc(OCC(=O)N4CCOCC4)ccc3c2n1CCOc1ccccc1` [Example 53, 2-Ethyl-7-(2-morpholin-4-yl-2-oxoethoxy)-1-(2-phenoxyethyl)-1H-imidazo[4,5-c]quinolin-4-amine], for which the melting point was 208 to 209 °C.
For `CCCc1nc2c(N)nc3cc(OCC4CCCCO4)ccc3c2n1CC(C)C` (stereo not shown) [Example 54, 1-(2-Methylpropyl)-2-propyl-7-(tetrahydropyran-2-ylmethoxy)-1H-imidazo[4,5-c]quinolin-4-amine] the value was 126 °C (dec.); for `CCCc1nc2c(N)nc3cc(OC4CCOC4)ccc3c2n1CC(C)C` (stereo not shown) [Example 55, 1-(2-Methylpropyl)-2-propyl-7-(tetrahydrofuran-3-yloxy)-1H-imidazo[4,5-c]quinolin-4-amine], 178 to 182 °C.
`CCCn1c(CCOC)nc2c(N)nc3cc(OC4CCOC4)ccc3c21` (stereo not shown) [Example 56, 2-(2-Methoxyethyl)-1-propyl-7-(tetrahydrofuran-3-yloxy)-1H-imidazo[4,5-c]quinolin-4-amine] gave a melting point of 192 to 194 °C.
Molecule `CCCn1c(CCOC)nc2c(N)nc3cc(OC(=O)NC(C)C)ccc3c21` [Example 366, 4-Amino-2-(2-methoxyethyl)-1-propyl-1H-imidazo[4,5-c]quinolin-7-yl isopropylcarbamate] came in with a melting point of 144 to 146 °C.
In turn, `CCOCc1nc2c(N)nc3cc(OCCCCCCNC(=S)NC(C)C)ccc3c2n1CC(C)(C)NC(C)=O` [Example 368, N-(2-{4-Amino-2-(ethoxymethyl)-7-[(6-{[(isopropylamino)carbonothioyl]amino}hexyl)oxy]-1H-imidazo[4,5-c]quinolin-1-yl}-1,1-dimethylethyl)acetamide] came in with a melting point of 110 to 120 °C.
Consider `CCOCc1nc2c(N)nc3cc(OCCCCCCNC(=O)NC(C)C)ccc3c2n1CC(C)(C)NC(=O)NC(C)C` [Example 369, N-(2-{4-Amino-2-(ethoxymethyl)-7-[(6-{[(isopropylamino)carbonyl]amino}hexyl)oxy]-1H-imidazo[4,5-c]quinolin-1-yl}-1,1-dimethylethyl)-N′-isopropylurea], for which the melting point is 205 to 209 °C.
With `CCOCc1nc2c(N)nc3cc(OCCCCCCNC(C)=O)ccc3c2n1CC(C)(C)NC(=O)NC(C)C` [Example 370, N-(6-{[4-Amino-2-(ethoxymethyl)-1-(2-{[(isopropylamino)carbonyl]amino}-2-methylpropyl)-1H-imidazo[4,5-c]quinolin-7-yl]oxy}hexyl)acetamide] the figure was 90 to 110 °C.
With `CCOCc1nc2c(N)nc3cc(OCCCCCCNS(C)(=O)=O)ccc3c2n1CC(C)(C)NC(=O)NC(C)C` [Example 371, N-(6-{[4-Amino-2-(ethoxymethyl)-1-(2-{[(isopropylamino)carbonyl]amino}-2-methylpropyl)-1H-imidazo[4,5-c]quinolin-7-yl]oxy}hexyl)methanesulfonamide] the figure was 190 to 194 °C.
`CCOCc1nc2c(N)nc3cc(OCCNC(=O)OC(C)(C)C)ccc3c2n1CC1COC(C)(C)O1` (stereo not shown) [Example 372, tert-Butyl 2-{[4-amino-1-[(2,2-dimethyl-1,3-dioxolan-4-yl)methyl]-2-(ethoxymethyl)-1H-imidazo[4,5-c]quinolin-7-yl]oxy}ethylcarbamate] returned a melting point of 82 to 84 °C.
For `CCOCc1nc2c(N)nc3cc(OC4CCN(C(=O)OC(C)(C)C)CC4)ccc3c2n1CC1COC(C)(C)O1` (stereo not shown) [Example 374, tert-Butyl 4-{[4-amino-1-[(2,2-dimethyl-1,3-dioxolan-4-yl)methyl]-2-(ethoxymethyl)-1H-imidazo[4,5-c]quinolin-7-yl]oxy}piperidine-1-carboxylate] the value was 158 to 159 °C.
For `CCCn1c(CCOC)nc2c(N)nc3cc(OC4CCN(C(=O)OC(C)(C)C)CC4)ccc3c21` [Example 387, tert-Butyl 4-{[4-amino-2-(2-methoxyethyl)-1-propyl-1H-imidazo[4,5-c]quinolin-7-yl]oxy}piperidine-1-carboxylate] the value was 173 to 175 °C.
With `CCCn1c(CCOC)nc2c(N)nc3cc(OC4CCN(C(=O)NC(C)C)CC4)ccc3c21` [Example 388, 4-{[4-Amino-2-(2-methoxyethyl)-1-propyl-1H-imidazo[4,5-c]quinolin-7-yl]oxy}-N-isopropylpiperidine-1-carboxamide] the figure was 176 to 179 °C.
As to `CCCn1c(CCOC)nc2c(N)nc3cc(OC4CCN(C(=O)C(C)C)CC4)ccc3c21` [Example 389, 7-[(1-Isobutyrylpiperidin-4-yl)oxy]-2-(2-methoxyethyl)-1-propyl-1H-imidazo[4,5-c]quinolin-4-amine], the melting point was 165 to 166 °C.
With `CCCn1c(CCOC)nc2c(N)nc3cc(OC4CCN(S(C)(=O)=O)CC4)ccc3c21` [Example 390, 2-(2-Methoxyethyl)-7-{[1-(methylsulfonyl)piperidin-4-yl]oxy}-1-propyl-1H-imidazo[4,5-c]quinolin-4-amine] the figure was 224 to 225.5 °C; with `CCCn1c(CCOC)nc2c(N)nc3cc(OC4CCN(C(N)=O)CC4)ccc3c21` [Example 391, 4-{[4-Amino-2-(2-methoxyethyl)-1-propyl-1H-imidazo[4,5-c]quinolin-7-yl]oxy}piperidine-1-carboxamide], 207 to 208.5 °C; with `CCCn1c(CCOC)nc2c(N)nc3cc(OCCCS(C)(=O)=O)ccc3c21` [Example 392, 2-(2-Methoxyethyl)-7-[3-(methylsulfonyl)propoxy]-1-propyl-1H-imidazo[4,5-c]quinolin-4-amine], 170 to 171 °C.
`CCCn1c(CCOC)nc2c(N)nc3cc(OCCCNC(=O)OC(C)(C)C)ccc3c21` [Example 393, tert-Butyl 3-{[4-amino-2-(2-methoxyethyl)-1-propyl-1H-imidazo[4,5-c]quinolin-7-yl]oxy}propylcarbamate]: the melting point is 133.5 to 135 °C.
With `CCCn1c(CCOC)nc2c(N)nc3cc(OCCCN)ccc3c21` [Example 394, 7-(3-Aminopropoxy)-2-(2-methoxyethyl)-1-propyl-1H-imidazo[4,5-c]quinolin-4-amine] the figure was 165 to 166.5 °C; with `CCCn1c(CCO)nc2c(N)nc3cc(OCCCNC(=O)C(C)C)ccc3c21` [Example 395, N-(3-{[4-Amino-2-(2-hydroxyethyl)-1-propyl-1H-imidazo[4,5-c]quinolin-7-yl]oxy}propyl)-2-methylpropanamide], 190.5 to 192 °C.
With `CCCn1c(CCO)nc2c(N)nc3cc(OCCCNC(=O)c4cccnc4)ccc3c21` [Example 396, N-(3-{[4-Amino-2-(2-hydroxyethyl)-1-propyl-1H-imidazo[4,5-c]quinolin-7-yl]oxy}propyl)nicotinamide] the figure was 183.5 to 184.5 °C; with `CCOCc1nc2c(N)nc3cc(OCCCN4CCCC4=O)ccc3c2n1CCCCNC(=O)OC(C)(C)C` [Example 397, tert-Butyl 4-{4-amino-2-(ethoxymethyl)-7-[3-(2-oxopyrrolidin-1-yl)propoxy]-1H-imidazo[4,5-c]quinolin-1-yl}butylcarbamate], 134.5 to 136 °C; with `CCOCc1nc2c(N)nc3cc(OCCCN4CCCC4=O)ccc3c2n1CCCCNC(=O)NC(C)C` [Example 399, N-(4-{4-Amino-2-(ethoxymethyl)-7-[3-(2-oxopyrrolidin-1-yl)propoxy]-1H-imidazo[4,5-c]quinolin-1-yl}butyl)-N′-isopropylurea], 98 to 101 °C.
`CCOCc1nc2c(N)nc3cc(OCCCN4CCCC4=O)ccc3c2n1CCCCNS(C)(=O)=O` [Example 400, N-(4-{4-Amino-2-(ethoxymethyl)-7-[3-(2-oxopyrrolidin-1-yl)propoxy]-1H-imidazo[4,5-c]quinolin-1-yl}butyl)methanesulfonamide] showed a melting point of 157 °C.
With `CCOCc1nc2c(N)nc3cc(OC4CCOC4)ccc3c2n1CCCCN1CCCS1(=O)=O` (stereo not shown) [Example 401, 1-[4-(1,1-Dioxidoisothiazolidin-2-yl)butyl]-2-(ethoxymethyl)-7-(tetrahydrofuran-3-yloxy)-1H-imidazo[4,5-c]quinolin-4-amine] the figure was 195.5 to 197 °C; with `CCOCc1nc2c(N)nc3cc(OCCCN4CCCC4=O)ccc3c2n1CCCCN1CCCS1(=O)=O` [Example 402, 1-(3-{[4-Amino-1-[4-(1,1-dioxidoisothiazolidin-2-yl)butyl]-2-(ethoxymethyl)-1H-imidazo[4,5-c]quinolin-7-yl]oxy}propyl)pyrrolidin-2-one], 142 to 144 °C; with `Cc1nc2c(N)nc3cc(OCCC4CCN(C(=O)NC5CCCCC5)CC4)ccc3c2n1CC(C)C` [Example 403, 4-{2-[(4-Amino-1-isobutyl-2-methyl-1H-imidazo[4,5-c]quinolin-7-yl)oxy]ethyl}-N-cyclohexylpiperidine-1-carboxamide], 213.7 to 215.7 °C.
For `CCCn1c(COCC)nc2c(N)nc3ccc(OCC(=O)N4CCN(C(=O)OC(C)(C)C)CC4)cc3c21` [Example 404, tert-Butyl 4-({[4-amino-2-(ethoxymethyl)-1-propyl-1H-imidazo[4,5-c]quinolin-8-yl]oxy}acetyl)piperazine-1-carboxylate] the value was 192 to 197 °C (dec.).

(Values after patent publication US9856254B2, “Alkoxy substituted imidazoquinolines” (3M INNOVATIVE PROPERTIES COMPANY, priority 2003, dated 2018).)
